Measurements taken from patent US20250134870A1, “PATHWAY MODULATOR, PHARMACEUTICAL COMPOSITION HAVING SAME, USE THEREOF, AND THERAPEUTIC METHOD USING SAME” (Jiangsu Yahong Meditech Co., Ltd., priority 2021, published 2025).

How the values were obtained:
[1] = test system: mesenteric lymph node immune cell subpopulations; assay: Flow cytometry of immune cell subpopulations and cytokines in mesenteric lymph nodes of DSS colitis mice (Examples 2, 4); type: in vivo, C57BL/6J mice; settings: 30 mg/kg PO QD × 8 days (Test group 1#) vs solvent group
Experimental: The experimental endpoint was 24 hours after administration on Day 8 for the positive drug control group and the Test group 1 #to Test group 7 #of Example 1; the experimental endpoint of the normal group and the solvent group was the same as that of the positive drug control group and Test group 1 #to Test group 7 #.
At the experimental endpoint, mesenteric lymphatic nodes were collected and treated as follows:
1) The mesenteric lymph nodes were gently grinded and filtered with a […] strainer (BD bioscience, Catalog No. 352350) to obtain a cell suspension, and the cells were counted.
2) The cells were suspended in a suspension solution (the suspension solution was prepared by the following process: diluting the cell activation mixture with a mixture of 90 v % 1640 medium and 10 v % fetal bovine serum to a concentration of 1×), the cell density was adjusted to 2.5×10^7/mL, and the cells were incubated at 37° C. for 5 hours. 3) The cells were washed with Dulbecco's Phosphate Buffered Saline, and stained with viable/dead stain (stain No. 12 in Table 5) at room temperature for 15 min to distinguish between viable cells and dead cells; the cells were washed with staining buffer (prepared by mixing fetal bovine serum and Dulbecco's Phosphate Buffered Saline at a volume ratio of 2:98), Fc block working solution (prepared by mixing Fc block and staining buffer at a volume ratio of 1:200) was added, and the cells were incubated at room temperature for 15 minutes.
4) The cells were surface labeled with 100 μL of antibody staining solution for flow cytometry without washing and incubated at 4° C. for 30 minutes.
5) The cells were washed once with staining buffer, 100 μL of cell fixative solution was added, and the cells were incubated at 4° C. overnight.
6) 200 μL of cell permeabilization solution was added and incubated at 4° C. for 30 minutes.
7) After washing with 250 μL of cell permeabilization solution, the cells were suspended with 100 μL of staining buffer and fluorescence was detected with a BD LSRFortessa instrument.
8) The cell subpopulations analyzed by flow cytometry included CD4+ T cell subpopulation, IL-17A+CD4+ T cell subpopulation, IFN-γ+CD4+ T cell subpopulation, TNF-α+CD4+ T cell subpopulation, CD25+FOXP3+ Treg cell subpopulation; CD8+ T cell subpopulation, IL-17A+CD8+ T cell subpopulation, IFN-γ+CD8+ T cell subpopulation, TNF-α+CD8+ T cell subpopulation; CD69+B220+ B cell subpopulation and NK1.1+CD107a+ NK cell subpopulation.

[2] = test system: cocaine dependence; settings: used in combination with cocaine; cited from earlier work
[3] = Body weight and weight change rate of EAU rats (Example 6); type: in vivo, Lewis rats
From the text: Wherein, Day 0 referred to the day of immunization. The body weight of each rat was monitored twice a week after immunization.
Dosing started from Day 0 accurately according to the animal body weight for a total of 16 days.

[4] = test system: collagen-induced arthritis (CIA); assay: Collagen-induced arthritis (CIA) in mice: body weight, clinical score, AUC, incidence (Example 9); type: in vivo, DBA/1 mice; settings: 50 mg/kg PO QD, 2 weeks
Experimental: DBA/1 mice were anesthetized with isoflurane and injected subcutaneously with 50 μL of prepared collagen emulsion (containing 200 μg of CII) in the tail. The day of the first immunization was recorded as Day 0, and the subsequent days were marked sequentially. On Day 21, mice were injected with a same volume of collagen emulsion in the tail.
Dosing lasted for 14 consecutive days. Compounds were prepared every 3 days and stored at 4° C.
Since Day 28, mice were weighed three times a week and clinical scores were recorded until the end of the experiment.
Clinical score: scores were given according to different degrees of lesions (redness and swelling, arthrentasis) on a scale of 0-4 points, the highest score was 4 points for each limb and 16 points for each animal.
Experimental data were represented as mean±standard error. Body weight and clinical score were analyzed by two-way ANOVA, and difference with p<0.05 was considered as significant.

## NCc1c[nH]c(=S)n1[C@H]1CCc2c(F)cc(F)cc2C1 [Nepicastat]
[1]
  proportion of CD4+ T cell subpopulation: reduce the proportion
  proportion of CD25+FOXP3+ Treg cell subpopulation: increase the proportion
  secretion of IFN-γ by CD4+ T cell subpopulation: reduce the secretion
  secretion of IL-17A by CD4+ T cell subpopulation: reduce the secretion
  secretion of TNF-α by CD4+ T cell subpopulation: reduce the secretion
[2]
  positive effects of cocaine: inhibit the positive effects of cocaine
[3]; Day 2, 25 mg/kg PO QD
  Rat body weight: 193.95 g
  Weight change rate (%): 3.25%
[3]; Day 2, 50 mg/kg PO QD
  Rat body weight: 194.04 g
  Weight change rate (%): 2.53%
[3]; Day 2, 100 mg/kg PO QD
  Rat body weight: 194.02 g
  Weight change rate (%): 2.11%
[3]; Day 6, 25 mg/kg PO QD
  Rat body weight: 204.67 g
  Weight change rate (%): 7.06%
[3]; Day 6, 50 mg/kg PO QD
  Rat body weight: 202.28 g
  Weight change rate (%): 6.90%
[3]; Day 6, 100 mg/kg PO QD
  Rat body weight: 205.97 g
  Weight change rate (%): 8.45%
[3]; Day 9, 25 mg/kg PO QD
  Rat body weight: 207.81 g
  Weight change rate (%): 9.26%
[3]; Day 9, 50 mg/kg PO QD
  Rat body weight: 206.07 g
  Weight change rate (%): 8.83%
[3]; Day 9, 100 mg/kg PO QD
  Rat body weight: 214.36 g
  Weight change rate (%): 12.84%
[3]; Day 13, 25 mg/kg PO QD
  Rat body weight: 214.28 g
  Weight change rate (%): 12.23%
[3]; Day 13, 50 mg/kg PO QD
  Rat body weight: 216.20 g
  Weight change rate (%): 14.24%
[3]; Day 13, 100 mg/kg PO QD
  Rat body weight: 223.98 g
  Weight change rate (%): 17.96%
[3]; Day 16, 25 mg/kg PO QD
  Rat body weight: 219.00 g
  Weight change rate (%): 12.36%
[3]; Day 16, 50 mg/kg PO QD
  Rat body weight: 218.42 g
  Weight change rate (%): 15.41%
[3]; Day 16, 100 mg/kg PO QD
  Rat body weight: 227.40 g
  Weight change rate (%): 19.77%
[3]; Day −1, 25 mg/kg PO QD
  Rat body weight: 188.31 g
  Weight change rate (%): 0.00%
[3]; Day −1, 50 mg/kg PO QD
  Rat body weight: 189.34 g
  Weight change rate (%): 0.00%
[3]; Day −1, 100 mg/kg PO QD
  Rat body weight: 189.92 g
  Weight change rate (%): 0.00%
[4]
  effect on collagen-induced arthritis in mice: had some known effects on collagen-induced arthritis in mice, but not as obvious as the positive control drug
